Where two headings read alike, the source gives them in different places.
Legend:
[1] = tested on: human carboxylesterases and tissue esterases; conditions: metabolized by human carboxyesterases and tissue esterases; cited from earlier work
[2] = cited from earlier work
clinical = conditions: human, exhaled breath, oral, 100 mg
[3] = orally; FDA Q3C guidance; cited from earlier work
[4] = not given; remark: listed apart in the source
[5] = cited from earlier work; remark: listed apart in the source
[6] = Example 26: breath d6-acetone after 100 mg d8-isopropanol per diem for 5 days (LTQ-LCMS); conditions: in vivo; for Half-life: human, 100 mg
Protocol: 100 mg aliquots (125 μL) of neat d8-isopropanol were ingested at 24 h intervals for a period of 5 days. Each aliquot was administered in a size 0 LiCap along with ˜200 mL of water.
Each breath sample consisted of a single full breath exhaled directly into the modified ESI source.
Following the ingestion of each aliquot, breath samples were taken every 2 min for the first 30 min following ingestion, every 5 min from 30-60 min after ingestion and every 10 min from 60-120 min. Additional breath samples were collected at ˜9 h and 20 h after ingestion. After the final dose, breath samples were taken once every 24 h for the next 3 days (total study time=8 days).

[7] = Example 4a: noncompartmental pharmacokinetics of exhaled 2-butanone and 2-pentanone by mGC; format: in vivo, human; conditions: human, in vivo
Description: Test Materials. […] 2-butanol was purchased from Penta Manufacturing Company (Fairfield, N.J.). 2-pentanol and L-carvone were purchased from Sigma-Aldrich (St. Louis, Mo.). […] 2-pentanone was also used as a taggant, but we hypothesized that its inherent volatility would allow exhalation without need for metabolism. L-carvone tastes like spearmint and was used as a flavor mask. All capsules were filled on the day of the experiment.
Subject Enrollment and Protocol. This protocol (20100140) was approved by the Western Institutional Review Board (Olympia, Wash.). Healthy subjects (n=5) aged >18 years of age and of either sex were recruited. Informed, written consent was obtained from all enrolled subjects. The study consisted of a single experimental limb with six replicates per subject. Therefore, for five subjects with six replicated experiments, a total of 30 studies were performed. Subjects were free to eat ad lib prior to participation in the study. At commencement of the experiments, subjects provided a baseline breath sample (designated time 0 min) into the mGC for analysis as described subsequently. Then, subjects orally consumed the previously detailed capsule with 177 mL (6 ounces) of water. Following ingestion, we observed the breath concentration-time relationships of 2-butanone and 2-pentanone by collecting single-breath samples at times 5, 10, 15, 20, 30, 45, and 60 min. After 60 min, the experiment was concluded. After at least one day's respite, subjects returned for replicate experiments on five additional occasions.
2-Butanone and 2-Pentanone Measurement in Human Breath by mGC. Breath specimens were analyzed “real-time” to measure the concentrations of 2-butanone and 2-pentanone using the mGC (Xhale, Inc. Gainesville, Fla.) as previously described. In brief, a mouthpiece (FST®, Intoximeters, Inc., St. Louis, Mo.) was attached to the inlet of the mGC. A 15 mL side-stream sample was aspirated during a single exhalation over 5 s through this inlet port to a room temperature concentrator trap containing 4 mg of Tenax TA (Sigma-Aldrich). The trap temperature was then increased to 130° C. and the volatile components transferred to a 5 m by 0.53 mm internal diameter, metal clad, BAC-1 capillary column (Restek Corp, Bellefonte, Pa.) operated at 55° C. The effluent from the column then flowed to the metal oxide detectors. Separation of the markers from other volatile organic compounds present in the sample (i.e., acetone and isoprene) occurred in approximately 2 min. Data were tabulated and graphically presented over time to determine the concentrations of 2-butanone and 2-pentanone in a given breath specimen. Data are reported in parts-per-billion (ppb) based on molar fractions to account for differing ambient atmospheric pressures and temperature.
Pharmacokinetic Analysis. Analyte breath concentrations reported as ppb were converted to ng/mL by multiplying each concentration by the molecular weight of the respective molecule to allow proper functioning of conventional PK software for noncompartmental analysis (WinNonlin 5.2, Pharsight Corporation, St. Louis, Mo.). Estimates were generated for the following PK parameters (abbreviation, unit): first-order elimination rate constant (Lambda Z, min-1), half-life of elimination (Half-life, min), maximal drug concentration (CMAX, μg/mL), time at maximal drug concentration (TMAX, min), area under concentration versus time curve from zero to the last time point (AUC0-LAST, min*μg/mL), area under concentration versus time curve from zero to infinity (AUC0-∞, min*μg/mL), percentage of area under concentration versus time curve from zero to infinity, which is extrapolated from AUC0-t (% AUC Extrap) and the mean residence time (MRT, min). The area under concentration versus time curve (AUC) was calculated using the linear trapezoidal rule. All values are reported separately for each subject as mean±standard deviation following conversion from ng/mL to ppb. […]

[8] = Example 30: sodium alkyl carbonates, stability and breath ketones after ingestion (FIG. 83)
Protocol: Isopropanol (1000 mL) was taken lab reactor and added Na metal (6 g). The reaction mixture was heated to 80° C. for 3 h (sodium metal dissolved, clear solution was observed). The reaction mixture was cooled to 0 to 5° C. and purged CO2 (thick suspension was observed after 30 min). Aliquot were drawn after 30 min, concentrated and the solid obtained was analyzed by 1H NMR. The reaction mixture was allowed to stir for additional 30 min. The complete reaction mixture was rinsed with isopropanol (100 mL) and transferred to an R.B flask, concentrated under vacuum to get white solid. The solid obtained after concentration was dried under vacuum at 40° C. at 1 h to get 26 g of white solid.
Sodium isopropoxy carbonate is formed according to this method. The MAC from isopropanol seems to decompose at 60° C. MAC on treatment with water decomposes and white solid was isolated.
The solution was cooled to between 0 and 5° C. and purged with CO2 for 45 minutes. The resulting suspension was concentrated under high vacuum at 40-50° C. to obtain 15 g of white solid. ^1H-NMR: δ ppm (in D2O)=0.89 (triplet, 3H), 1.17 (doublet, 3H), 1.50 (multiplet, 2H), 4.38 (multiplet, 1H) ^13C-NMR: δ ppm (in D2O)=9.48, 19.59, 28.97, 73.96 and 159.61. IR: ν (cm^−1)=1651, 1458, 1369 and 1289 (indicative of an alkyl carboxylate).
Synthesis 2: Six grams of Na metal was dissolved in 100 mL of anhydrous isopropanol at 80° C. […]

[9] = in vivo
Description: FIG. 79. […] The experimental data was curve fit (parameter estimates±SE) to Equation 1 using a non-linear, least squares (Marquardt-Levenburg) algorithm (SigmaPlot 11, Systat Software, Inc., San Jose, Calif.). […] Note: the logarithmic scale is used on the y axis.
These times are indicated by the short vertical lines on the time axis. […] The y axis is plotted on the log 10 scale.
As it relates to the SMART® Adherence System, the concentration rise (rapid absorption of AEM and conversion to EDIM) and decay of the EDIM with time in breath following oral administration of the AEM is well described by a 1 compartmental (monoexponential) pharmacokinetic (PK) model, reflecting absorption and elimination, which can be described by the following equation (dertived from Miller's Anesthesia, 6th Edition, p 81, 2005, Ed: Ronald D. Miller, Elsevier Churchill Livingstone, Philadelphia, Pa.):
In this example, an initial 1st AEM dose pharmacokinetic (PK) analysis over a period of 0 to a maximum of 24 hours is carried out. […] Note: To ensure an accurate EDIM t1/2a ideally the last time point measured in this 1st dose PK analysis includes the EDIM trough concentration (i.e., the concentration at the time point just prior to the 2nd dose). The AEM could either consist of ordinary or non-ordinary cold isotopes, which generate ordinary and non-ordinary cold isotopic labeled EDIMs. The EDIM levels in breath are measured using the appropriate SMART® device type as disclosed herein.

[2H]OC([2H])(C([2H])([2H])[2H])C([2H])([2H])[2H] [d8-IPA, d8-isopropanol]
OrbiTrap peak height (single 100 mg dose): 360,000 peak height
OrbiTrap response relative to background endogenous breath acetone (single 100 mg dose): approximately 5.14 ×

CCOC(=O)c1ccc(O)cc1 [Ethyl paraben]
Breath Metabolites [1]: Ethanol + POHBA

CCCCOC(=O)c1ccc(O)cc1 [Butyl paraben]
Breath Metabolites [1]: Butanol + POHBA

CCCCCCOC(C)=O [hexyl acetate]
LD50 Oral Rat ([2]; oral): 30147 mg/kg

CC(C)=O [acetone]
Half-life (clinical): < 10 h
permissible daily exposure (PDE) [3]: 210 mg/day
time for trough concentrations to reach steady state ([4]; 100 mg IPA daily): 1 to 2 days
breath concentration ([4]; 100 mg IPA for 5 successive days, Type 1 (mGC) device): 2700 to 3000 ppb
maximum breath concentration ([4]; 100 mg IPA oral): 2800 ppb
rise of breath concentration over baseline ([4]; 100 mg IPA oral, 15 and 30 min): greater than 6 ×
average elimination half life in humans ([5]; Jones, J Anal Toxicol 2000): 22 h
metabolic/elimination half life in humans ([5]; Jones, J Anal Toxicol 2000): 17 to 27 h
Half-life ([6]; elimination half life in breath, Example 26 / FIG. 74, after d8-IPA): ~6.4 h
Half-life ([6]; half-life of acetone derived from IPA, exhaled breath): ~6.5 h
CMAX assuming dose proportionality (IPA 138 mg orally per day (PDE)): 4131 ppb

COC(=O)C(C)C [methylisobutyrate]
LD50 Oral Rat ([2]; oral): 5000 mg/kg

CCCC(C)O (centres unmarked) [Formulation 2-pentanol, 2-pentanol]
LD50 Oral Rat ([2]; oral): 1470 mg/kg

COC(=O)c1ccc(O)cc1 [Methyl paraben]
Breath Metabolites [1]: Methanol + para- hydroxybenzoic acid (POHBA)

C[S+](C)[O-] [DMSO, dimethyl sulfoxide]
permissible daily exposure (PDE) [3]: 50 mg/day
elimination half life ([5]; humans): 12 to 15 h

CCOC(=O)C(C)C [ethyl isobutyrate]
LD50 Oral Rat ([2]; oral): 13000 mg/kg

CCC(=O)OC [methyl propionate]
LD50 Oral Rat ([2]; oral): 5000 mg/kg

CCCC(C)=O [Formulation 2-pentanone, 2-pentanone]
Half-life ([7]; both sexes, Half-life): 0.395 h
MRT last ([7]; both sexes, MRT0-Last): 0.42 h
MRT last ([7]; both sexes, MRT0-last): 0.423 h
TMAX ([7]; both sexes, TMAX): 0.247 h
TThresh range between replicates ([7]; both): 5 to 7 min
AUC0-8 [7]: 58214 min · ppb
observed CMAX range [7]: 536-2,072 ppb

CC(=O)OCCC(C)C [isoaryl (isopentyl) acetate]
LD50 Oral Rat ([2]; oral): 16600 mg/kg

CC(C)OC(=O)O [MAC from isopropanol, Sodium Isopropyl Carbonate]
temperature at which it seems to decompose [8]: 60 °C

CCCOC(C)=O [propyl acetate]
LD50 Oral Rat ([2]; in vivo, po): 9370 mg/kg

[2H]C([2H])([2H])C(=O)C([2H])([2H])[2H] [d6-acetone]
TMAX ([9]; human): 1.46 h
steady state CMAX ([9]; human): 1819 ppb
CMAX, 1st dose ([9]; human, 100 mg): 1561 ppb
FLost [9]: 0.859
accumulation factor (AF) [9]: 1.165
steady state CTrough [9]: 267 ppb
Average k [6]: Average k = −0.1079
elimination half life in breath [6]: 6.4 h
exhaled breath peak height [6]: 62000 peak height
time after a dose up to which deviations from steady state are detectable [6]: up to 65 hours
t½ [6]: t½ ≃ 6.4 h
maximum peak response remaining after 24 h ([6]; 24 h): 6-10%
TMAX (100 mg d8-IPA): 3 h
maximum breath concentration (CMAX) (100 mg d8-IPA, assuming breath acetone of 582 ppb): 2,993 ppb
